Laboratory results taken from PubChem BioAssay (NCI).
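Results reflect a 48-hour exposure of cells in 96-well plates to compound at five concentrations. The concentration for full growth arrest is given as TGI.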

tested on: MDA-MB-435; experiment: DTP human tumour cell line panel, 48 h

Compound | TGI
CC1CC(N)=Nc2ccccc2N1 (configuration not stated) | > 100 µM
S=C(NCc1ccccc1)c1nc[nH]c1C(=S)NCc1ccccc1 | 19.6 µM
CC(C)(Cc1ccccc1)NC1=NCCO1 | > 100 µM
CN(c1ccc(Cl)cc1)S(=O)(=O)c1cccc([N+](=O)[O-])c1 | > 100 µM
Cc1cc2nc3c(C#N)c(-c4ccccc4)cc(Nc4ccc(Cl)cc4)n3c2cc1C | > 100 µM
CN(c1ccc(Cl)cc1)S(=O)(=O)c1ccc([N+](=O)[O-])cc1 | > 100 µM
O=C1OC[C@@H]2Cc3cc4c(cc3[C@H](c3ccc5c(c3)OCO5)[C@@H]12)OCO4 | > 25 µM
O=S1(=O)OCCOS(=O)(=O)C1F | > 100 µM
CC(=O)n1nc(-c2ccccc2)n(/N=C/c2ccc([N+](=O)[O-])cc2)c1=O | > 100 µM
CCn1c(-c2cc(OC)cc(OC)c2)nc2c1C(=O)c1ccccc1C2=O | > 100 µM
COc1cc(-c2cc(=O)c3c(OC)c(OC)c(OC)c(OC)c3o2)c(OC)c(OC)c1OC | > 100 µM
O=S(=O)(c1ccccc1)n1c2cc3cccnc3nc2c2cccnc21 | 60 µM
COc1cc(/C=C2\CCC(C)C3C2=NN(C(C)=O)C3c2cc(OC)c(OC)c(OC)c2)cc(OC)c1OC (configuration not stated) | > 100 µM
Cc1cc(N(CCC#N)CCC#N)ccc1/C(N=Nc1ccc([N+](=O)[O-])cc1)=N\NC(=O)c1cc(Cl)ccc1C(=O)c1ccccc1 | > 100 µM
CC(=O)NC1C(OCc2ccccc2)OC(CO)C(O)C1OC(C)C(=O)NC(C)C(=O)NC(CCC(=O)NCCCNc1c2ccccc2nc2cccc([N+](=O)[O-])c12)C(N)=O (configuration not stated) | 2.65 µM
NC(=O)C(N)Cc1ccc(O)cn1 (configuration not stated) | > 100 µM
CC[N+](CC)(CCNCC(N)=O)CC(N)=O | > 10 µM
COc1ccc(N=C2SC(=N/N=c3\sc4ccccc4n3C)SC2=Nc2ccc(OC)cc2)cc1 | > 100 µM
Cc1ccc(/C=N/n2c(=O)[nH]c3ccccc3c2=O)cc1 | > 100 µM
S=C(c1c[nH]c2ccccc12)N1CCOCC1 | > 100 µM
COc1ccc(C2CC(=O)CC(c3ccc(OC)cc3)C23C(=O)NC(=O)NC3=O)cc1 (configuration not stated) | 61.6 µM
COC(C)(C)C1=CCC(C)CC1 (configuration not stated) | > 100 µM
c1ccc2sc(C3(N4CCCC4)CCCCCC3)cc2c1 | 31.7 µM

tested on: HCT-15 colon; experiment: DTP human tumour cell line panel, 48 h

Compound | TGI
CC1CC(N)=Nc2ccccc2N1 (configuration not stated) | > 100 µM
S=C(NCc1ccccc1)c1nc[nH]c1C(=S)NCc1ccccc1 | 33.6 µM
CC(C)(Cc1ccccc1)NC1=NCCO1 | > 100 µM
CN(c1ccc(Cl)cc1)S(=O)(=O)c1cccc([N+](=O)[O-])c1 | > 100 µM
O=C(c1ccc(O)cc1)C1c2c3c(cc(O)c2C(c2ccc(O)cc2)C1c1cc(O)cc(O)c1)OC(c1ccc(O)cc1)C3c1cc2c(cc1O)OC(c1ccc(O)cc1)C2c1cc(O)cc(O)c1 (configuration not stated) | > 12.5 µM
Cc1cc2nc3c(C#N)c(-c4ccccc4)cc(Nc4ccc(Cl)cc4)n3c2cc1C | > 100 µM
CN(c1ccc(Cl)cc1)S(=O)(=O)c1ccc([N+](=O)[O-])cc1 | > 100 µM
O=C1OC[C@@H]2Cc3cc4c(cc3[C@H](c3ccc5c(c3)OCO5)[C@@H]12)OCO4 | > 25 µM
O=S1(=O)OCCOS(=O)(=O)C1F | > 100 µM
CC(=O)n1nc(-c2ccccc2)n(/N=C/c2ccc([N+](=O)[O-])cc2)c1=O | > 100 µM
COc1cc(C[S+]2CCCC2)c(SC)cc1C[S+]1CCCC1 | > 100 µM
CCn1c(-c2cc(OC)cc(OC)c2)nc2c1C(=O)c1ccccc1C2=O | > 100 µM
COc1cc(-c2cc(=O)c3c(OC)c(OC)c(OC)c(OC)c3o2)c(OC)c(OC)c1OC | > 100 µM
C[C@]12C=CC(=O)C=C1CC[C@H]1[C@@H]3C[C@@H](O)[C@](O)(C(=O)CO)[C@@]3(C)C[C@H](O)[C@@]12F | > 100 µM
O=S(=O)(c1ccccc1)n1c2cc3cccnc3nc2c2cccnc21 | > 100 µM
COc1cc(/C=C2\CCC(C)C3C2=NN(C(C)=O)C3c2cc(OC)c(OC)c(OC)c2)cc(OC)c1OC (configuration not stated) | > 100 µM
Cc1cc(N(CCC#N)CCC#N)ccc1/C(N=Nc1ccc([N+](=O)[O-])cc1)=N\NC(=O)c1cc(Cl)ccc1C(=O)c1ccccc1 | 37.2 µM
CC(=O)NC1C(OCc2ccccc2)OC(CO)C(O)C1OC(C)C(=O)NC(C)C(=O)NC(CCC(=O)NCCCNc1c2ccccc2nc2cccc([N+](=O)[O-])c12)C(N)=O (configuration not stated) | 7.3 µM
NC(=O)C(N)Cc1ccc(O)cn1 (configuration not stated) | > 100 µM
CC[N+](CC)(CCNCC(N)=O)CC(N)=O | > 10 µM
COc1ccc(N=C2SC(=N/N=c3\sc4ccccc4n3C)SC2=Nc2ccc(OC)cc2)cc1 | > 100 µM
Cc1ccc(/C=N/n2c(=O)[nH]c3ccccc3c2=O)cc1 | > 100 µM
S=C(c1c[nH]c2ccccc12)N1CCOCC1 | > 100 µM
COc1ccc(C2CC(=O)CC(c3ccc(OC)cc3)C23C(=O)NC(=O)NC3=O)cc1 (configuration not stated) | > 100 µM
COC(C)(C)C1=CCC(C)CC1 (configuration not stated) | > 100 µM
c1ccc2sc(C3(N4CCCC4)CCCCCC3)cc2c1 | 56.5 µM

tested on: LOX IMVI melanoma; experiment: DTP human tumour cell line panel, 48 h

Compound | TGI
CC1CC(N)=Nc2ccccc2N1 (configuration not stated) | > 100 µM
S=C(NCc1ccccc1)c1nc[nH]c1C(=S)NCc1ccccc1 | 17.1 µM
CC(C)(Cc1ccccc1)NC1=NCCO1 | > 100 µM
CN(c1ccc(Cl)cc1)S(=O)(=O)c1cccc([N+](=O)[O-])c1 | > 100 µM
O=C(c1ccc(O)cc1)C1c2c3c(cc(O)c2C(c2ccc(O)cc2)C1c1cc(O)cc(O)c1)OC(c1ccc(O)cc1)C3c1cc2c(cc1O)OC(c1ccc(O)cc1)C2c1cc(O)cc(O)c1 (configuration not stated) | > 12.5 µM
Cc1cc2nc3c(C#N)c(-c4ccccc4)cc(Nc4ccc(Cl)cc4)n3c2cc1C | > 100 µM
CN(c1ccc(Cl)cc1)S(=O)(=O)c1ccc([N+](=O)[O-])cc1 | > 100 µM
O=C1OC[C@@H]2Cc3cc4c(cc3[C@H](c3ccc5c(c3)OCO5)[C@@H]12)OCO4 | > 25 µM
